Source: patent publication EP4624471A1, “PKMYT1 INHIBITOR, PREPARATION METHOD THEREFOR, AND PHARMACEUTICAL COMPOSITION AND USE THEREOF” (Shanghai Qilu Pharmaceutical Research and Development …, priority 2022, dated 2024)

The compounds below were run against T1, PKMYT1 enzyme (Homo sapiens, UniProt Q99640) (assay: PKMYT1 enzyme inhibition activity, ADP-GLO method). Conditions: PKMYT1 enzyme 10 nM, ATP 5 µM, 37°C 90 minutes; read-out: ADP-GLO IC50.
T1 construct: purchased Thermo Scientific A33387
T1 sequence (Q99640 1-499): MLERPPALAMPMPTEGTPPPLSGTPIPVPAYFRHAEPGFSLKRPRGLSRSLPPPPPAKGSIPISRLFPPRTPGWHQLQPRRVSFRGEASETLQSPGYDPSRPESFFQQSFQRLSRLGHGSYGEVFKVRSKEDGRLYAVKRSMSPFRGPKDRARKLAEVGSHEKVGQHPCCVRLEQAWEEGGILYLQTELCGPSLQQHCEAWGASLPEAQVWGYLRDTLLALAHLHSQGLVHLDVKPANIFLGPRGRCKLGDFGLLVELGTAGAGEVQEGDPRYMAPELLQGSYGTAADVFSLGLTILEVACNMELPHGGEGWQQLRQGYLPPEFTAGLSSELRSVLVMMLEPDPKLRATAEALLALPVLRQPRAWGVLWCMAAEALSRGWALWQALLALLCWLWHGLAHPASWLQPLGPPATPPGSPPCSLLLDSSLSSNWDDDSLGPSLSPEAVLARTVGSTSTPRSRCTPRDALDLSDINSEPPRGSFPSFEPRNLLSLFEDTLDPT
Format: biochemical
Experimental: Enzyme inhibition activity of compounds of the present disclosure
The enzyme activity of some of the example compounds was verified using the ADP-GLO method.
PKMYT1 enzyme protein was purchased from Thermo Scientific (Cat. No.: A33387), and the ADP-GLO kit was purchased from Promega (Cat. No.: V9103).
PKMYT1 enzyme activity reaction buffer: 70 mM HEPES, 3 mM MgCl2, 3 mM MnCl2, 50 µg mL-1PEG20000, 3 µM sodium orthovanadate, 1.2 mM DTT.
The reaction plate with the added compounds was centrifuged at 2500 rpm for 1 minute.
The prepared enzyme solution was added to the reaction plate, 5 µL per well, and the final concentration of enzyme was 10 nM. The reaction plate was centrifuged at 1000 rpm for 1 minute. The reaction plate was placed in an incubator at 37°C for 15 minutes.
The prepared ATP substrate solution was added to the reaction plate, 5 µL per well, and the final concentration of ATP was 5 µM. The reaction plate was centrifuged at 1000 rpm for 1 minute. After sealing the plate with aluminum foil, the plate was placed in an incubator and the reaction was carried out at 37°C for 90 minutes.
10 µL of ADP-glo™ reagent was added to stop the kinase reaction and consume unconsumed ATP, leaving only ADP and a very low ATP background. The reaction plate was centrifuged at 1000 rpm for 1 minute. After sealing the plate with aluminum foil, the reaction was carried out at room temperature for 60 minutes.
ADP was converted to ATP by adding 20 µL of kinase detection reagent, and luciferase and luciferin were introduced to detect ATP. The reaction plate was centrifuged at 1000 rpm for 1 minute. After sealing the plate with aluminum foil, the reaction was carried out at room temperature for 60 minutes.
The ADP-GLO luminescence signal values were read by the microplate reader PHERAstar, and the readings were analyzed.
With `Cc1ccc(O)c(C)c1-n1c(N)c(C(N)=O)c2cnc(-c3ccc(F)cc3)nc21` [Example 64] the IC50 was 15.7 nM.
Compound `Cc1ncc2c(C(N)=O)c(N)n(-c3c(C)cc(F)c(O)c3C)c2n1` [Example 65] has an IC50 of 23.8 nM.
`CCc1nc(C)nc2c1c(C(N)=O)c(N)n2-c1c(C)cc(F)c(O)c1C` [Example 67] showed an IC50 of 54.6 nM.
Work on `CCc1ccc(O)c(C)c1-n1c(N)c(C(N)=O)c2cnc(C)nc21` [Example 68] yielded an IC50 of 299 nM.
Compound `Cc1cc2c(C(N)=O)c(N)n(-c3c(C)c(O)cc(F)c3C)c2c(F)c1C` [Example 70] has an IC50 of 34 nM.
In the case of `Cc1ccc(O)c(C)c1-n1c(N)c(C(N)=O)c2c(F)nc(C)c(F)c21` [Example 72], the IC50 is reported as 9.72 nM.
`Cc1cc2c(C(N)=O)c(N)n(-c3c(C)cc(F)c(O)c3C)c2nc1F` [Example 73] gave an IC50 of 13.4 nM.
`Cc1cc2c(C(N)=O)c(N)n(-c3c(C)cc(F)c(O)c3C)c2nc1Cl` [Example 74] showed an IC50 of 7.11 nM.
In the case of `CCNc1ncc2c(C(N)=O)c(N)n(-c3c(C)ccc(O)c3C)c2n1` [Example 75], the IC50 is reported as 5.5 nM.
For `Cc1ccc(O)c(C)c1-n1c(N)c(C(N)=O)c2cnc(NC3CCCC3)nc21` [Example 76], the IC50 was 4.02 nM.
`Cc1ccc(O)c(C)c1-n1c(N)c(C(N)=O)c2cnc(NCC(F)F)nc21` [Example 77] showed an IC50 of 20.2 nM.
Compound `C/C=C/c1ncc2c(C(N)=O)c(N)n(-c3c(C)ccc(O)c3C)c2n1` [Example 79] has an IC50 of 4.74 nM.
`Cc1c(O)cc(F)c(C)c1-n1c(N)c(C(N)=O)c2cc(F)cnc21` [Example 82] showed an IC50 of 5.43 nM.
`CCCN(CC)c1ncc2c(C(N)=O)c(N)n(-c3c(C)ccc(O)c3C)c2n1` [Example 83] was tested, and the IC50 was 41.8 nM.
Compound `Cc1ccc(O)c(C)c1-n1c(N)c(C(N)=O)c2cnc(NC3CC3)nc21` [Example 84] has an IC50 of 5.28 nM.
With `CNc1ncc2c(C(N)=O)c(N)n(-c3c(C)ccc(O)c3C)c2n1` [Example 85] the IC50 was 6.7 nM.
Compound `Cc1ccc(O)c(C)c1-n1c(N)c(C(N)=O)c2cnc(CCC3CC3)nc21` [Example 86] has an IC50 of 5.47 nM.
In the case of `CCCc1ncc2c(C(N)=O)c(N)n(-c3c(C)ccc(O)c3C)c2n1` [Example 87], the IC50 is reported as 3.35 nM.
Compound `Cc1ccc(O)c(C)c1-n1c(N)c(C(N)=O)c2cnc(C3CCC(F)(F)CC3)nc21` [Example 88] has an IC50 of 16 nM.
Work on `Cc1cnc2c(c1)c(C(N)=O)c(N)n2-c1c(C)c(O)cc(F)c1C` [Example 89] yielded an IC50 of 3 nM.
`Cc1nc2c(cc1C(=O)O)c(C(N)=O)c(N)n2-c1c(C)c(O)cc(F)c1C` [Example 90] gave an IC50 of 90.7 nM.
`Cc1ccc(O)c(C)c1-n1c(N)c(C(N)=O)c2cc(NC(=O)Nc3ccccc3)c(C)nc21` [Example 91] showed an IC50 of 41.7 nM.
In the case of `COc1c(O)ccc(C)c1-n1c(N)c(C(N)=O)c2cc(C)c(C)nc21` [Example 94], the IC50 is reported as 408 nM.
`Cc1cc2c(C(N)=O)c(N)n(-c3c(C)ccc(O)c3C)c2nc1N` [Example 95] gave an IC50 of 9.47 nM.
`Cc1cc(F)c(O)c(C)c1-n1c(N)c(C(N)=O)c2cc(OC3CCC3)c(C)nc21` [Example 96] showed an IC50 of 9.4 nM.
Compound `Cc1cc2c(C(N)=O)c(N)n(-c3c(C)cc(Br)c(O)c3C)c2nc1C` [Example 97] has an IC50 of 187 nM.
`Cc1c(O)cc(F)c(C)c1-n1c(N)c(C(N)=O)c2cc(C#N)cnc21` [Example 98] gave an IC50 of 8.11 nM.
Compound `Cc1cc2c(C(N)=O)c(N)n(-c3c(C)c(F)cc(O)c3F)c2nc1C` [Example 107] has an IC50 of 14.1 nM.
`Cc1c(O)cc(F)c(C)c1-n1c(N)c(C(N)=O)c2cc(N3CCOCC3)cnc21` [Example 117] gave an IC50 of 192 nM.
`Cc1cc2c(C(N)=O)c(N)n(-c3c(C)c(O)cc(F)c3C)c2nc1-c1ccnn1C` [Example 124] gave an IC50 of 10.4 nM.
`Cc1cc2c(C(N)=O)c(N)n(-c3c(C)c(O)cc(F)c3C)c2nc1-c1ccccc1` [Example 137] was tested, and the IC50 was 36.2 nM.
`C=C(C)c1nc2c(cc1C)c(C(N)=O)c(N)n2-c1c(C)c(O)cc(F)c1C` [Example 138] was tested, and the IC50 was 27 nM.
`Cc1cc2c(C(N)=O)c(N)n(-c3c(C)c(O)cc(F)c3C)c2nc1C(C)C` [Example 139] showed an IC50 of 143 nM.
With `CCc1cnc2c(c1)c(C(N)=O)c(N)n2-c1c(C)cc(F)c(O)c1C` [Example 140] the IC50 was 7.73 nM.
`Cc1cc(F)c(O)c(C)c1-n1c(N)c(C(N)=O)c2cc(C(C)(C)O)cnc21` [Example 145] gave an IC50 of 24.3 nM.
For `COC(C)(C)c1cnc2c(c1)c(C(N)=O)c(N)n2-c1c(C)cc(F)c(O)c1C` [Example 146], the IC50 was 35.2 nM.
Compound `Cc1cc(F)c(O)c(C)c1-n1c(N)c(C(N)=O)c2cc(CC(C)C)cnc21` [Example 147] has an IC50 of 13.6 nM.
`C=Cc1cnc2c(c1)c(C(N)=O)c(N)n2-c1c(C)cc(F)c(O)c1C` [Example 148] showed an IC50 of 7.32 nM.
For `COc1cnc2c(c1)c(C(N)=O)c(N)n2-c1c(C)cc(F)c(O)c1C` [Example 149], the IC50 was 12.6 nM.
Compound `Cc1cc2c(C(N)=O)c(N)n(-c3c(C)cc(F)c(O)c3C)c2nc1CC(C)C` [Example 151] has an IC50 of 20.1 nM.
In the case of `C=C(C)c1nc2c(cc1C)c(C(N)=O)c(N)n2-c1c(C)cc(F)c(O)c1C` [Example 152], the IC50 is reported as 47.9 nM.
Compound `C=C(C)c1cnc2c(c1)c(C(N)=O)c(N)n2-c1c(C)cc(F)c(O)c1C` [Example 155] has an IC50 of 23.2 nM.
With `C=C(C)c1cc2c(C(N)=O)c(N)n(-c3c(C)cc(F)c(O)c3C)c2nc1C` [Example 156] the IC50 was 26.4 nM.
`C=CCCc1cc2c(C(N)=O)c(N)n(-c3c(C)cc(F)c(O)c3C)c2nc1C` [Example 157] showed an IC50 of 60.6 nM.
For `Cc1cc(F)c(O)c(C)c1-n1c(N)c(C(N)=O)c2cc(OC(C)C)c(C)nc21` [Example 160], the IC50 was 7.85 nM.
Work on `Cc1cc(F)c(O)c(C)c1-n1c(N)c(C(N)=O)c2cc(CO)c(C)nc21` [Example 164] yielded an IC50 of 7.06 nM.
`Cc1cc(F)c(O)c(C)c1-n1c(N)c(C(N)=O)c2cc(C3=CCOCC3)c(C)nc21` [Example 165] was tested, and the IC50 was 33.4 nM.
Work on `COc1nc2c(cc1C)c(C(N)=O)c(N)n2-c1c(C)cc(F)c(O)c1C` [Example 167] yielded an IC50 of 22 nM.
In the case of `Cc1cc(F)c(O)c(C)c1-n1c(N)c(C(N)=O)c2cc(S(C)(=O)=O)c(C)nc21` [Example 168], the IC50 is reported as 4.92 nM.
`COC(C)(C)c1cc2c(C(N)=O)c(N)n(-c3c(C)cc(F)c(O)c3C)c2nc1C` [Example 171] showed an IC50 of 26.8 nM.
For `Cc1cc(F)c(O)c(C)c1-n1c(N)c(C(N)=O)c2cc(CC(F)(F)F)c(C)nc21` [Example 174], the IC50 was 4.7 nM.
For `Cc1ccc(O)c(C)c1-n1c(N)c(C(N)=O)c2cc3c(nc21)OC(F)(F)O3` [Example 178], the IC50 was 15.5 nM.
Work on `Cc1cc(F)c(O)c(C)c1-n1c(N)c(C(N)=O)c2cc3ccccc3nc21` [Example 180] yielded an IC50 of 30.5 nM.
With `Cc1c(O)cc(F)c(C)c1-n1c(N)c(C(N)=O)c2c(C)c3c(nc21)CCC3` [Example 182] the IC50 was 85.7 nM.
`Cc1cc(F)c(O)c(C)c1-n1c(N)c(C(N)=O)c2cc3c(nc21)CCC3` [Example 183] showed an IC50 of 33.8 nM.
`Cc1cc(F)c(O)c(C)c1-n1c(N)c(C(N)=O)c2cc3c(nc21)CCO3` [Example 184] showed an IC50 of 88.8 nM.
With `Cc1ccc(O)c(C)c1-n1c(N)c(C(N)=O)c2c3c(c(C)nc21)OCC3` [Example 187] the IC50 was 43.5 nM.
Work on `[2H]C([2H])([2H])c1cc(F)c(O)c(C([2H])([2H])[2H])c1-n1c(N)c(C(N)=O)c2cc(C(F)(F)F)c(C)nc21` [Example 193] yielded an IC50 of 7.94 nM.
Compound `Cc1cc(F)c(O)c(C)c1-n1c(N)c(C(N)=O)c2cc(C(F)F)c(C)nc21` [Example 204] has an IC50 of 18.9 nM.
Work on `Cc1cc(F)c(O)c(C)c1-n1c(N)c(C(N)=O)c2c3cnccc3c(C)cc21` [Example 207] yielded an IC50 of 4.08 nM.
`Cc1c(O)cc(F)c(C)c1-n1c(N)c(C(N)=O)c2c3cnccc3c(C)cc21` [Example 208] showed an IC50 of 4.52 nM.

Same assay, conditions: read-out: ADP-GLO IC50; PKMYT1 enzyme 10 nM, ATP 5 µM, 37°C 90 minutes
`COc1nc(C)nc2c1c(C(N)=O)c(N)n2-c1c(C)ccc(O)c1C` [Example 69] showed an IC50 of 15.6 nM.
`Cc1ccc(O)c(C)c1-n1c(N)c(C(N)=O)c2cnc(/C=C/C3CC3)nc21` [Example 78] showed an IC50 of 8.23 nM.
For `Cc1ccc(O)c(C)c1-n1c(N)c(C(N)=O)c2cc3c(ccn3C)nc21` [Example 206], the IC50 was 6.58 nM.
